Assay results: PubChem BioAssay AID1963831 (Molecular Pharmacology Branch, DTP, NCI, 2024)

Tested on: 889142-216-R-J1-PDC complex spheroid viability
Experiment: Anticancer human tumor 889142-216-R-J1-PDC patient-derived bladder carcinoma cell line growth inhibition [POLQ]
Conditions: for IC50: curve of first compound; for viability, T/C: stronger effect = lower value
Summary of the method: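 Complex spheroid viability model combining PDC tumour cells with endothelial (HUVEC) and MSC stromal cells. Novobiocin, ART-558 or RP6685 were tested singly and in combination with standard and investigational anticancer drugs. Each was titrated in half-log steps from near clinical Cmax, or from 10 microM where Cmax was unknown.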

[1] = second compound 0.0316 µM, first compound 0.00316 µM
[2] = second compound 0.0316 µM, first compound 0.01 µM
[3] = second compound 0.0316 µM, first compound 0.0316 µM
[4] = second compound 0.0316 µM, first compound 0.1 µM
[5] = second compound 0.1 µM, first compound 0.00316 µM
[6] = second compound 0.1 µM, first compound 0.01 µM
[7] = second compound 0.1 µM, first compound 0.0316 µM
[8] = second compound 0.1 µM, first compound 0.1 µM
[9] = second compound 0.316 µM, first compound 0.00316 µM
[10] = second compound 0.316 µM, first compound 0.01 µM
[11] = second compound 0.316 µM, first compound 0.0316 µM
[12] = second compound 0.316 µM, first compound 0.1 µM
[13] = second compound 1 µM, first compound 0.00316 µM
[14] = second compound 1 µM, first compound 0.01 µM
[15] = second compound 1 µM, first compound 0.0316 µM
[16] = second compound 1 µM, first compound 0.1 µM
[17] = second compound 3.16 µM, first compound 0.00316 µM
[18] = second compound 3.16 µM, first compound 0.01 µM
[19] = second compound 3.16 µM, first compound 0.0316 µM
[20] = second compound 3.16 µM, first compound 0.1 µM
[21] = second compound 10 µM, first compound 0.00316 µM
[22] = second compound 10 µM, first compound 0.01 µM
[23] = second compound 10 µM, first compound 0.0316 µM
[24] = second compound 10 µM, first compound 0.1 µM
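Further: spheroids exposed to compounds for seven days.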
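Wherever viability, T/C is given: 100% = DMSO vehicle control viability.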

## CC[C@@]1(O)C(=O)OCc2c1cc1n(c2=O)Cc2cc3c(CN(C)C)c(O)ccc3nc2-1 + Cc1cccc(N(C)C(=O)C2C(O)CCN2c2nc(C)cc(C(F)(F)F)c2C#N)c1
Second compound 0.0316 µM
  IC50: > 100 nM
Second compound 0.1 µM
  IC50: > 100 nM
Second compound 0.316 µM
  IC50: > 100 nM
Second compound 1 µM
  IC50: > 100 nM
Second compound 3.16 µM
  IC50: > 100 nM
Second compound 10 µM
  IC50: 64.7 nM
Second compound 0.0316 µM, first compound 0.000316 µM
  viability, T/C: 103%
Second compound 0.0316 µM, first compound 0.001 µM
  viability, T/C: 103%
[1]
  viability, T/C: 84.2%
[2]
  viability, T/C: 76.5%
[3]
  viability, T/C: 71.2%
[4]
  viability, T/C: 56.8%
Second compound 0.1 µM, first compound 0.000316 µM
  viability, T/C: 96%
Second compound 0.1 µM, first compound 0.001 µM
  viability, T/C: 115%
[5]
  viability, T/C: 109%
[6]
  viability, T/C: 83.7%
[7]
  viability, T/C: 73%
[8]
  viability, T/C: 58.9%
Second compound 0.316 µM, first compound 0.000316 µM
  viability, T/C: 97.8%
Second compound 0.316 µM, first compound 0.001 µM
  viability, T/C: 111%
[9]
  viability, T/C: 84.4%
[10]
  viability, T/C: 91.8%
[11]
  viability, T/C: 72.6%
[12]
  viability, T/C: 56.6%
Second compound 1 µM, first compound 0.000316 µM
  viability, T/C: 100%
Second compound 1 µM, first compound 0.001 µM
  viability, T/C: 121%
[13]
  viability, T/C: 93.2%
[14]
  viability, T/C: 82.2%
[15]
  viability, T/C: 56.2%
[16]
  viability, T/C: 61.2%
Second compound 3.16 µM, first compound 0.000316 µM
  viability, T/C: 118%
Second compound 3.16 µM, first compound 0.001 µM
  viability, T/C: 103%
[17]
  viability, T/C: 87.3%
[18]
  viability, T/C: 84%
[19]
  viability, T/C: 59.2%
[20]
  viability, T/C: 57.9%
Second compound 10 µM, first compound 0.000316 µM
  viability, T/C: 73.2%
Second compound 10 µM, first compound 0.001 µM
  viability, T/C: 104%
[21]
  viability, T/C: 75%
[22]
  viability, T/C: 68.3%
[23]
  viability, T/C: 52.8%
[24]
  viability, T/C: 48%

## CCc1c2c(nc3ccc(O)cc13)-c1cc3c(c(=O)n1C2)COC(=O)[C@]3(O)CC + Cc1cccc(N(C)C(=O)C2C(O)CCN2c2nc(C)cc(C(F)(F)F)c2C#N)c1
Second compound 0.0316 µM
  IC50: 20.6 nM
Second compound 0.1 µM
  IC50: 17 nM
Second compound 0.316 µM
  IC50: 14 nM
Second compound 1 µM
  IC50: 14.5 nM
Second compound 3.16 µM
  IC50: 19.4 nM
Second compound 10 µM
  IC50: 6.21 nM
[1]
  viability, T/C: 68.8%
[2]
  viability, T/C: 48.8%
[3]
  viability, T/C: 50.4%
[4]
  viability, T/C: 30.2%
Second compound 0.0316 µM, first compound 0.316 µM
  viability, T/C: 35.8%
Second compound 0.0316 µM, first compound 1 µM
  viability, T/C: 10.7%
[5]
  viability, T/C: 58.9%
[6]
  viability, T/C: 56%
[7]
  viability, T/C: 44.7%
[8]
  viability, T/C: 34%
Second compound 0.1 µM, first compound 0.316 µM
  viability, T/C: 28.4%
Second compound 0.1 µM, first compound 1 µM
  viability, T/C: 10.4%
[9]
  viability, T/C: 58.4%
[10]
  viability, T/C: 57.3%
[11]
  viability, T/C: 37.2%
[12]
  viability, T/C: 35.6%
Second compound 0.316 µM, first compound 0.316 µM
  viability, T/C: 27.7%
Second compound 0.316 µM, first compound 1 µM
  viability, T/C: 8.37%
[13]
  viability, T/C: 64%
[14]
  viability, T/C: 51.3%
[15]
  viability, T/C: 39%
[16]
  viability, T/C: 35.3%
Second compound 1 µM, first compound 0.316 µM
  viability, T/C: 31.1%
Second compound 1 µM, first compound 1 µM
  viability, T/C: 9.07%
[17]
  viability, T/C: 60.5%
[18]
  viability, T/C: 60.4%
[19]
  viability, T/C: 40.9%
[20]
  viability, T/C: 34%
Second compound 3.16 µM, first compound 0.316 µM
  viability, T/C: 30.3%
Second compound 3.16 µM, first compound 1 µM
  viability, T/C: 5.91%
[21]
  viability, T/C: 52%
[22]
  viability, T/C: 51.9%
[23]
  viability, T/C: 35.9%
[24]
  viability, T/C: 34.7%
Second compound 10 µM, first compound 0.316 µM
  viability, T/C: 26.1%
Second compound 10 µM, first compound 1 µM
  viability, T/C: 6.24%
